Test results as given in patent publication US20090028888A1, “Cancer Antigen Mage-A9 and Uses Thereof” (priority 2005, published 2009).

How the values were obtained:
[1] = test system: CT genes; settings: cited from earlier work; for expression of CT genes, combination with 5-AZA-DC: HDAC inhibitor combined with 5-AZA-DC
[2] = test system: MAGE-A9 gene expression in bladder cancer cell lines; assay: RT-PCR analysis of MAGE-A9 gene expression induction in bladder cancer cell lines; settings: MGH-U3, 5637 and VMCUB-3; 1 μM 5-AZA-DC alone, 96 hours

| Compound | induction of the expression of several CT genes ([1]; single agent) | MAGE-A9 mRNA induction [2] | expression of CT genes, combination with 5-AZA-DC [1] |
| --- | --- | --- | --- |
| Nc1ncn([C@H]2C[C@H](O)[C@@H](CO)O2)c(=O)n1 [5-AZA-DC, 5-aza-2′-deoxycytidine] | potent inducers | strongly induced | – |
| C/C=C1\NC(=O)[C@H]2CSSCC/C=C/[C@H](CC(=O)N[C@H](C(C)C)C(=O)N2)OC(=O)[C@H](C(C)C)NC1=O [depsipetide] | – | – | stronger expression |
| CC(/C=C/C(=O)NO)=C\[C@@H](C)C(=O)c1ccc(N(C)C)cc1 [trichostatin A] | – | – | stronger expression |
